Patent US11034672B1, “Tyrosine kinase inhibitor compositions, methods of making and methods of use” (Black Diamond Therapeutics, Inc., priority 2018, dated 2021)

Key:
Type in all cases: cell-based
[1] = target: T1, HER2 S310F (Homo sapiens, UniProt P04626, S310F); assay: BaF3 cell proliferation assay, HER2 S310F (Table B); conditions: potency code, 3 days, CellTiterGlo, read-out: HER2 S310F (Activity for Inhibiting HER2)
T1 construct: expressed in transfected cells; host or cells: BaF3 (murine pro-B)

[2] = target: T2, HER2 YVMA (Homo sapiens, UniProt P04626, INS775YVMA); assay: Activity for inhibiting HER2 (Table B), HER2 YVMA; conditions: read-out: HER2 YVMA, potency code (IC50)
T2 construct: expressed in transfected cells; host or cells: BaF3 (murine pro-B)
Description: (§1) EC50 values were determined with the same application.

[3] = target: T3, EGFR V3 (Homo sapiens, UniProt P00533, DELINS30-297G); assay: Activity for inhibiting EGFR (Table A), EGFR V3 (EGFR-Viii); conditions: read-out: EGFR V3, potency code (IC50)
T3 construct: expressed in transfected cells; host or cells: BaF3 (murine pro-B), retroviral pMXs-IRES-Blasticidin

[4] = target: T4, EGFR WT (Homo sapiens, UniProt P00533); assay: Activity for inhibiting EGFR (Table A), EGFR WT; conditions: read-out: EGFR WT, potency code (IC50)
[5] = target: T3, EGFR V3; assay: BaF3 cell proliferation assay, EGFR V3 (Table A); conditions: potency code, 3 days, CellTiterGlo, read-out: EGFR V3 (Activity for Inhibiting EGFR)
Description: (§2) Retroviral Production: EGFR mutants were subcloned into pMXs-IRES-Blasticidin (RTV-016, Cell Biolabs, San Diego, Calif.). Retroviral expression vector retrovirus was produced by transient transfection of HEK 293T cells with the retroviral EGFR mutant expression vector pMXs-IRES-Blasticidin (RTV-016, Cell Biolabs), pCMV-Gag-Pol vector and pCMV-VSV-G-Envelope vector. Briefly, HEK 293T/17 cells were plated in 100 mm collagen coated plate (354450, Corning Life Sciences, Tewksbury, Mass.) (4×10^5 per plate) and incubated overnight. The next day, retroviral plasmids (3 μg of EGFR mutant, 1.0 μg of pCMV-Gag-Pol and 0.5 μg pCMV-VSV-G) were mixed in 500 μl of Optimem (31985, Life Technologies). The mixture was incubated at room temperature for 5 min and then added to Optimem containing transfection reagent Lipofectamine (11668, Invitrogen) and incubated for 20 minutes. Mixture was then added dropwise to HEK 293T cells. The next day the medium was replaced with fresh culture medium and retrovirus was harvested @ 24 and 48 hrs.
(§3) Generation of EGFR mutant stable cell lines: BaF3 cells (1.5E5 cells) were infected with 1 ml of viral supernatant supplemented with 8 μg/ml polybrene by centrifuging for 30 min at 1000 rpm. Cells were placed in a 37° C. incubator overnight. Cells were then spun for 5 minutes to pellet the cells. Supernatant was removed and cells re-infected a fresh 1 ml of viral supernatant supplemented with 8 μg/ml polybrene by centrifuging for 30 min at 1000 rpm. Cells were placed in 37° C. incubator overnight. […] After 48 hours cells were selected for retroviral infection in 10 μg/ml Blasticidin for one week. Blasticidin resistant populations were washed twice in phosphate buffered saline before plating in media lacking IL-3 to select for IL-3 independent growth.
as §1

[6] = target: T4, EGFR WT; assay: BaF3 cell proliferation assay, EGFR WT (Table A); conditions: potency code, 3 days, CellTiterGlo, read-out: EGFR WT (Activity for Inhibiting EGFR)
Description: as §2, §3, §1

[7] = target: T1, HER2 S310F; assay: Activity for inhibiting HER2 (Table B), HER2 S310F; conditions: read-out: HER2 S310F, potency code (IC50)
Description: as §1

[8] = target: T2, HER2 YVMA; assay: BaF3 cell proliferation assay, HER2 YVMA (Table B); conditions: potency code, 3 days, CellTiterGlo, read-out: HER2 YVMA (Activity for Inhibiting HER2)

T4 sequence (P00533 25-1210 N540K): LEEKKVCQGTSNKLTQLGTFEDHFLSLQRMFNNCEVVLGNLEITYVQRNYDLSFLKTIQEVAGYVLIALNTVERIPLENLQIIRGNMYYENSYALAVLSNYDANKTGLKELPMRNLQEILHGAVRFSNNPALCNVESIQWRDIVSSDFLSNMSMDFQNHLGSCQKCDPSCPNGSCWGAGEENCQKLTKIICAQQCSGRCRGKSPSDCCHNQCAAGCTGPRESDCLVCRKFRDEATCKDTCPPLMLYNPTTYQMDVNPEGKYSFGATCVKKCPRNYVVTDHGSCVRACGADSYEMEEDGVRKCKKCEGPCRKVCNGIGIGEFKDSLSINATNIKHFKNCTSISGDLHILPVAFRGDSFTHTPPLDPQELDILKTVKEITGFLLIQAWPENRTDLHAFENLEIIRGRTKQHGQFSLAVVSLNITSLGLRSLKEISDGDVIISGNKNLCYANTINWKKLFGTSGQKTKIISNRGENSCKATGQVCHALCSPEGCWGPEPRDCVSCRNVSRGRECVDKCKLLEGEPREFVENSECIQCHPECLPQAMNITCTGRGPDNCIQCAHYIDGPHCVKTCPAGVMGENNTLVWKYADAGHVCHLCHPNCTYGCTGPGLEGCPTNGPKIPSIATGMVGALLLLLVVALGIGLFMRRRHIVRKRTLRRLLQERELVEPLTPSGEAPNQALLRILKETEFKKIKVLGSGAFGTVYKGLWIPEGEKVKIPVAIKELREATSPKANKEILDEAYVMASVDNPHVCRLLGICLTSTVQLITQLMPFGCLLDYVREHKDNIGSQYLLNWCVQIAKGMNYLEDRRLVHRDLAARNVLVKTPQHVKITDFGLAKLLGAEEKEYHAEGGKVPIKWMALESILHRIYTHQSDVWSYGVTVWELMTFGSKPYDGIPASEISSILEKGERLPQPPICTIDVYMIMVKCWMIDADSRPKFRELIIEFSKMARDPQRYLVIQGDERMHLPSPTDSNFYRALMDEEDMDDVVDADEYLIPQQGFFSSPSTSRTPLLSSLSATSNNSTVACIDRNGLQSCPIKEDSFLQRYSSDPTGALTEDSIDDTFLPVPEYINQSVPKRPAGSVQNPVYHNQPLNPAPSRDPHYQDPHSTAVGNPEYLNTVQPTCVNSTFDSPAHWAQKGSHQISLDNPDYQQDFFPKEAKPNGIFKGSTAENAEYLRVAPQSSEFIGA
T3 sequence (P00533 with tags, fused parts or gaps DELINS30-297G): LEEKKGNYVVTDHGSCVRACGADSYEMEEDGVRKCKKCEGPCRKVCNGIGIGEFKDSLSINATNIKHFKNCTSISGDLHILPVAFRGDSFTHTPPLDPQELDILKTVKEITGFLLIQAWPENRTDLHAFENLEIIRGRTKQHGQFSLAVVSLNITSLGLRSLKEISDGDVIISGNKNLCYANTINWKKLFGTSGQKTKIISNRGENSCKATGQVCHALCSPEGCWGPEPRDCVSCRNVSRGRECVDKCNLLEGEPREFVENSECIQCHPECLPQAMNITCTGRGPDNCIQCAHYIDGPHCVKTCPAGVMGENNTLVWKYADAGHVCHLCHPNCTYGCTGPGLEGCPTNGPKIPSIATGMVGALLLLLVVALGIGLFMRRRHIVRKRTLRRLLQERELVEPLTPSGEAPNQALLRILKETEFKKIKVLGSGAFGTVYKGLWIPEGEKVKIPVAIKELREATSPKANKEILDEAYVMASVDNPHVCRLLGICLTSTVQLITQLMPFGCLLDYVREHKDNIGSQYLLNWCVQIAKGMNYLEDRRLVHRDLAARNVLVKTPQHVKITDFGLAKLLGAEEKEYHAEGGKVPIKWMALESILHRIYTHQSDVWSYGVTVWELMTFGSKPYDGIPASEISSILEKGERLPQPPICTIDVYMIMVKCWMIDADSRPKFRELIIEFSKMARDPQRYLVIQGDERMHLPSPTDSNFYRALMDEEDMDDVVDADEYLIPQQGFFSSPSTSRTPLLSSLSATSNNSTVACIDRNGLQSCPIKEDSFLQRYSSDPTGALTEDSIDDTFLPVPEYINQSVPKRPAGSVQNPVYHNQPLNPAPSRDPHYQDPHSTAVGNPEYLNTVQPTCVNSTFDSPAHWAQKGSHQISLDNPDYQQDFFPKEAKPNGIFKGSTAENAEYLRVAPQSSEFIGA
T1 sequence (P04626 23-1255 S310F): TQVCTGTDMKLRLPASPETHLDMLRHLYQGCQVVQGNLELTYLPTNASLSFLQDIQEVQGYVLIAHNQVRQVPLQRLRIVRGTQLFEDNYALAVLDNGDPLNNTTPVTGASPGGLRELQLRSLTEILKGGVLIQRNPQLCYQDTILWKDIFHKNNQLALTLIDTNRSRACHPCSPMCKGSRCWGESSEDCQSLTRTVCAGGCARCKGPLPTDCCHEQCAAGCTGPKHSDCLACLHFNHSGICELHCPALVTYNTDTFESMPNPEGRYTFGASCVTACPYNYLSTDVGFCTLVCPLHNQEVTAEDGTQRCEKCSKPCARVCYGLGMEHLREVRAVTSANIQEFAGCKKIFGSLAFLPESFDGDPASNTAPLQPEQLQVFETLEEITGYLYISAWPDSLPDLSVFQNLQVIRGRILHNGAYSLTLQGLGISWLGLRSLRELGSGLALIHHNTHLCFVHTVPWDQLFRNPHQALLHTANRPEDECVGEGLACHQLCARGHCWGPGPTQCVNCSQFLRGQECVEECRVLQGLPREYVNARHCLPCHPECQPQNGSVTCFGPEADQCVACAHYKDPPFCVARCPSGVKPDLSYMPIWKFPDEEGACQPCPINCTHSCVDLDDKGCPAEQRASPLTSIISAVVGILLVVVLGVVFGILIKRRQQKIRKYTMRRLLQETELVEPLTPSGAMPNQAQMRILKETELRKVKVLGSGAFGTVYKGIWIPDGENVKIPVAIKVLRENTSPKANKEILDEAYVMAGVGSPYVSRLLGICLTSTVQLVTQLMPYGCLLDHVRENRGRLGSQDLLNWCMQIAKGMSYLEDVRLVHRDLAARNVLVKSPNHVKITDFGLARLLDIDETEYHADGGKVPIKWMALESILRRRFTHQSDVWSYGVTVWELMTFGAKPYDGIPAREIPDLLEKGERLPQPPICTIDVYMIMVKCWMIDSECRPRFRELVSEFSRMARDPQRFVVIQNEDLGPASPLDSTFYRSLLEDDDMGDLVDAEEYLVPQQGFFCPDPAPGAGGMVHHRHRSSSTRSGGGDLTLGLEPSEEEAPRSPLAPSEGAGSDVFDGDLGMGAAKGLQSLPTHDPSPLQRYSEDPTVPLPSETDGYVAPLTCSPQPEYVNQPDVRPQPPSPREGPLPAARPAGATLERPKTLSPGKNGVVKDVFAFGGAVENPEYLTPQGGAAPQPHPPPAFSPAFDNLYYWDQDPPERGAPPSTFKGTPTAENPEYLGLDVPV
T2 sequence (P04626 with tags, fused parts or gaps INS775YVMA): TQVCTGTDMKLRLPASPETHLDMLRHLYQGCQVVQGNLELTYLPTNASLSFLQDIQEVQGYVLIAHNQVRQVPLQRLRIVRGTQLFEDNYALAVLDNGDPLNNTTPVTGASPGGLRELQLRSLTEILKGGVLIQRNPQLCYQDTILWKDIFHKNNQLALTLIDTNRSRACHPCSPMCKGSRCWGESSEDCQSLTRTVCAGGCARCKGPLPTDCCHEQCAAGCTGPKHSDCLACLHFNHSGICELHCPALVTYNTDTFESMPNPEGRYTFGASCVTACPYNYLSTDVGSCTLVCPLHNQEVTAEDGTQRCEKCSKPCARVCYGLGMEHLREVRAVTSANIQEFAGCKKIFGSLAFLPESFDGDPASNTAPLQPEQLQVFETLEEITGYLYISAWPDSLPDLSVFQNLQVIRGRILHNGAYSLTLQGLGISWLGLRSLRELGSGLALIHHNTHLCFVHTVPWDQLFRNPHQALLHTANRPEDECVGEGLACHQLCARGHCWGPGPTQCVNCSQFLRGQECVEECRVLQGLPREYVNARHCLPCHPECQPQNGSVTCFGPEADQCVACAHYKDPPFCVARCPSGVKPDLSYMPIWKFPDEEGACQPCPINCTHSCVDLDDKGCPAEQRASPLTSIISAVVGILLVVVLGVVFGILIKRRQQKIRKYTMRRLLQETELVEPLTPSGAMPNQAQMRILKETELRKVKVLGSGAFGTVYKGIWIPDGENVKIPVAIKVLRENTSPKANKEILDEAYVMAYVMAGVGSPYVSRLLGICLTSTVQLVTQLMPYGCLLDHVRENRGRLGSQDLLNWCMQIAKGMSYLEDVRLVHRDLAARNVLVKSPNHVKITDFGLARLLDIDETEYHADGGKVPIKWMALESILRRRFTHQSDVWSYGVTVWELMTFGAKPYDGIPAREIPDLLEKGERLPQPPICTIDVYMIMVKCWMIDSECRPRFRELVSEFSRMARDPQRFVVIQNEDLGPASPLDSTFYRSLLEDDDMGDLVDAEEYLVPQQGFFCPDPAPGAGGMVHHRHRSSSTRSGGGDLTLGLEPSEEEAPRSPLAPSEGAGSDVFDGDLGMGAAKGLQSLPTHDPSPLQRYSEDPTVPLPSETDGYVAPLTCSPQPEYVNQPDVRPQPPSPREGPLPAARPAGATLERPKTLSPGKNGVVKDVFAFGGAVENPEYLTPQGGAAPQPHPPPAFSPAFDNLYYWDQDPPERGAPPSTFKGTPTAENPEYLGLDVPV

SMILES | IC50 [1] [nM] | IC50 [2] [nM] | IC50 [3] [nM] | IC50 [4] [nM] | IC50 [5] [nM] | IC50 [6] [nM] | IC50 [7] [nM] | IC50 [8] [nM]
CC#CC(=O)Nc1cc2c(Nc3ccc(OCc4cnccn4)c(Cl)c3)ncnc2cc1OCCCN1CCOCC1 [compound 170, N-(4-((3-chloro-4-(pyrazin-2-ylmethoxy)phenyl)amino)-7-(3-morpholinopropoxy)quinazolin-6-yl)but-2-ynamide] | 5 to 10 | 10 to 20 | 30 to 50 | 200 to 300 | 30 to 50 | 200 to 300 | 5 to 10 | 10 to 20
C=CC(=O)Nc1cc2c(Nc3ccc(OCc4cccc(F)c4)c(Cl)c3)ncnc2cc1OCCCN1CC(OC)C1 [compound 144] | 30 to 50 | 100 to 200 | 100 to 200 | 100 to 200 | 100 to 200 | 100 to 200 | 30 to 50 | 100 to 200
C=CC(=O)Nc1cc2c(Nc3ccc(Oc4ccc(C)nc4)c(C)c3)ncnc2cc1C#C[C@@H]1[C@H]2CN(C)C[C@@H]12 [compound 104, N-(7-(((1R,5S,6s)-3-methyl-3-azabicyclo[3.1.0]hexan-6-yl)ethynyl)-4-((3-methyl-4-((6-methylpyridin-3-yl)oxy)phenyl)amino)quinazolin-6-yl)acrylamide] | 30 to 50 | 30 to 50 | 30 to 50 | 20 to 30 | 30 to 50 | 20 to 30 | 30 to 50 | 30 to 50
C=CC(=O)Nc1cc2c(Nc3ccc(OCc4ccccn4)c(Cl)c3)ncnc2cc1OCCN1CCC(N(C)C)CC1 [compound 76] | 30 to 50 | 100 to 200 | 50 to 100 | 200 to 300 | 50 to 100 | 200 to 300 | 30 to 50 | 100 to 200
C=CC(=O)Nc1cc2c(Nc3ccc(OCc4cnccn4)c(Cl)c3)ncnc2cc1OCCCN1CC(OC)C1 [compound 179] | 10 to 20 | 30 to 50 | 30 to 50 | 500 to 1000 | 30 to 50 | 500 to 1000 | 10 to 20 | 30 to 50
C=CC(=O)Nc1cc2c(Nc3ccc(OCc4cccc(F)c4)c(Cl)c3)ncnc2cc1OCCN1CC2CCC(C1)O2 [compound 139] | 30 to 50 | 100 to 200 | 100 to 200 | 500 to 1000 | 100 to 200 | 500 to 1000 | 30 to 50 | 100 to 200
CC#CC(=O)Nc1cc2c(Nc3ccc(OCc4ncccn4)c(Cl)c3)ncnc2cc1OCCCN1CCOCC1 [compound 168, N-(4-((3-chloro-4-(pyrimidin-2-ylmethoxy)phenyl)amino)-7-(3-morpholinopropoxy)quinazolin-6-yl)but-2-ynamide] | 20 to 30 | 50 to 100 | 30 to 50 | 200 to 300 | 30 to 50 | 200 to 300 | 20 to 30 | 50 to 100
C=CC(=O)Nc1cc2c(Nc3ccc(OCc4ccccn4)c(Cl)c3)ncnc2cc1N1CC(N(C)C)C1 [compound 93, N-(4-((3-chloro-4-(pyridin-2-ylmethoxy)phenyl)amino)-7-(3-(dimethylamino)azetidin-1-yl)quinazolin-6-yl)acrylamide] | 500 to 1000 | > 1000 | 200 to 300 | > 1000 | 200 to 300 | > 1000 | 500 to 1000 | > 1000
C=CC(=O)Nc1cc2c(Nc3ccc(OCc4cccnn4)c(Cl)c3)ncnc2cc1OCCN1CCN(C)CC1 [compound 172] | 50 to 100 | 300 to 500 | 100 to 200 | 500 to 1000 | 100 to 200 | 500 to 1000 | 50 to 100 | 300 to 500
C=CC(=O)Nc1cc2c(Nc3ccc(OCc4ccccn4)c(Cl)c3)ncnc2cc1OCC1CN(C)C1 [compound 123, N-(4-((3-chloro-4-(pyridin-2-ylmethoxy)phenyl)amino)-7-((1-methylazetidin-3-yl)methoxy)quinazolin-6-yl) Acrylamide] | 30 to 50 | 100 to 200 | 30 to 50 | 200 to 300 | 30 to 50 | 200 to 300 | 30 to 50 | 100 to 200
CC#CC(=O)Nc1cc2c(Nc3ccc(OCc4cccnn4)c(Cl)c3)ncnc2cc1OCCCN1CCOCC1 [compound 165, N-(4-((3-chloro-4-(pyridazin-3-ylmethoxy)phenyl)amino)-7-(3-morpholinopropoxy)quinazolin-6-yl)but-2-ynamide] | 10 to 20 | 50 to 100 | 30 to 50 | 100 to 200 | 30 to 50 | 100 to 200 | 10 to 20 | 50 to 100
C=CC(=O)Nc1cc2c(Nc3ccc(OCc4ccccn4)c(Cl)c3)ncnc2cc1C#C[C@H]1CCNC1 [compound 86, N-(4-((3-chloro-4-(pyridin-2-ylmethoxy)phenyl)amino)-7-(pyrrolidin-3-ylethynyl)quinazolin-6-yl)acrylamide] | 20 to 30 | 100 to 200 | 100 to 200 | 500 to 1000 | 100 to 200 | 500 to 1000 | 20 to 30 | 100 to 200
C=CC(=O)Nc1cc2c(Nc3ccc(OCc4ccccn4)c(Cl)c3)ncnc2cc1OCCN1CCC(O)CC1 [compound 111, N-(4-((3-chloro-4-(pyridin-2-ylmethoxy)phenyl)amino)-7-(2-(4-hydroxypiperidin-1-yl)ethoxy)quinazolin-6-yl)acrylamide] | 30 to 50 | 100 to 200 | 30 to 50 | 300 to 500 | 30 to 50 | 300 to 500 | 30 to 50 | 100 to 200
C=CC(=O)Nc1cc2c(Nc3ccc(OCc4cccc(F)c4)c(Cl)c3)ncnc2cc1O[C@@H]1CCN(C)C1 [compound 141] | 30 to 50 | 300 to 500 | 100 to 200 | 100 to 200 | 100 to 200 | 100 to 200 | 30 to 50 | 300 to 500
C=CC(=O)Nc1cc2c(Nc3cnc(NCc4ccccn4)c(Cl)c3)ncnc2cc1OCCN1CCOCC1 [compound 97, N-(4-((5-chloro-6-((pyridin-2-ylmethyl)amino)pyridin-3-yl)amino)-7-(2-morpholinoethoxy)quinazolin-6-yl)acrylamide] | 200 to 300 | 500 to 1000 | 50 to 100 | 500 to 1000 | 50 to 100 | 500 to 1000 | 200 to 300 | 500 to 1000
CC#CC(=O)Nc1cc2c(Nc3cc(Cl)c(OCc4cccc(F)c4)cc3F)ncnc2cc1OCCCN1CCOCC1 [compound 150, N-(4-((5-chloro-2-fluoro-4-((3-fluorobenzyl)oxy)phenyl)amino)-7-(3-morpholinopropoxy)quinazolin-6-yl)but-2-ynamide] | 10 to 20 | 30 to 50 | 50 to 100 | 200 to 300 | 50 to 100 | 200 to 300 | 10 to 20 | 30 to 50
C=CC(=O)Nc1cc2c(Nc3cc(Cl)c(OCc4cccc(F)c4)cc3F)ncnc2cc1OCCCN1CC(OC)C1 [compound 131] | 50 to 100 | 300 to 500 | 200 to 300 | 200 to 300 | 100 to 200 | 200 to 300 | 50 to 100 | 300 to 500
C=CC(=O)Nc1cc2c(Nc3ccc(OCc4ccccn4)nc3)ncnc2cc1OCCN1CCOCC1 [compound 71] | 200 to 300 | > 1000 | 50 to 100 | 500 to 1000 | 50 to 100 | 500 to 1000 | 200 to 300 | > 1000
